Activity calls are given as the source filed them.
What was measured:
[1] = molecular target: Sphingosine 1-phosphate receptor 2 (Homo sapiens, UniProt O95136); assay: Dose Response Cell Based Assay for Agonists of the S1P2 Receptor of Purchased Analogues. [Related pubchem assays: 729, 843, 854, 736 ]; format: functional
Prothrombin = Prothrombin (Homo sapiens, UniProt P00734); assay: Thrombin 1536 HTS Dose Response Confirmation. [Related pubchem assays: 1046 (Thrombin 1536 HTS; hits were confirmed in this assay)]; format: functional
[2] = molecular target: T1, Neuropeptide Y receptor type 2 (Homo sapiens, UniProt P49146); format: functional, cell-based;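 note: HEK293 cells expressing the receptor and a CNG channel; stimulus was NPY near EC95 followed by isoproterenol to raise cAMP; antagonist potency measured as restoring cAMP signal that NPY suppresses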
T1 sequence (P49146 whole entry): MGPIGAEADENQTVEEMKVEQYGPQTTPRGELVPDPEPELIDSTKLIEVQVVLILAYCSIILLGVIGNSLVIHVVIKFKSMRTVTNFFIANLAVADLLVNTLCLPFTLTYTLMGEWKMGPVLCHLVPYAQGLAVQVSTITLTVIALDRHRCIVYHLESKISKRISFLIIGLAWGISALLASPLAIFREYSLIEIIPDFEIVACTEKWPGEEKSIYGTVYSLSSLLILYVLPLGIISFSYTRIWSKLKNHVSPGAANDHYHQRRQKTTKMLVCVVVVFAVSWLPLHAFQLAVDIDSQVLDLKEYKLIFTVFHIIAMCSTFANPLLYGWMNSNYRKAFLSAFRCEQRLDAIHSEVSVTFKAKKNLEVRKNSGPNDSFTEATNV

[3] = molecular target: T2, Neuropeptide Y receptor type 1 (Homo sapiens, UniProt P25929); format: functional;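 note: HEK293 cells with a CNG channel challenged with NPY then isoproterenol; potency as antagonist that reverses NPY suppression of cAMP signal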
T2 sequence (P25929 whole entry): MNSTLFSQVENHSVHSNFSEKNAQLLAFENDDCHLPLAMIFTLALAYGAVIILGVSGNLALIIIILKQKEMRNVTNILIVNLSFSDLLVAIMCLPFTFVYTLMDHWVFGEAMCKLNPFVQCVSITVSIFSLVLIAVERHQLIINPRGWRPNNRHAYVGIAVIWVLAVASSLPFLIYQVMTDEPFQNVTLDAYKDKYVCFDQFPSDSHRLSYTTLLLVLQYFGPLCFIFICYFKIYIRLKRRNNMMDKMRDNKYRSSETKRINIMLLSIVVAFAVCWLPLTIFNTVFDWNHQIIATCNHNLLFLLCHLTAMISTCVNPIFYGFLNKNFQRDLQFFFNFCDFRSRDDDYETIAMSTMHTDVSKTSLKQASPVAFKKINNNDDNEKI

[4] = molecular target: T3, Voltage-gated N-type calcium channel alpha-1B subunit/Amyloid beta A4 precursor protein-binding family A member 1 (Homo sapiens, UniProt Q00975+Q02410); format: protein assay
T3 sequence (Q00975 whole entry): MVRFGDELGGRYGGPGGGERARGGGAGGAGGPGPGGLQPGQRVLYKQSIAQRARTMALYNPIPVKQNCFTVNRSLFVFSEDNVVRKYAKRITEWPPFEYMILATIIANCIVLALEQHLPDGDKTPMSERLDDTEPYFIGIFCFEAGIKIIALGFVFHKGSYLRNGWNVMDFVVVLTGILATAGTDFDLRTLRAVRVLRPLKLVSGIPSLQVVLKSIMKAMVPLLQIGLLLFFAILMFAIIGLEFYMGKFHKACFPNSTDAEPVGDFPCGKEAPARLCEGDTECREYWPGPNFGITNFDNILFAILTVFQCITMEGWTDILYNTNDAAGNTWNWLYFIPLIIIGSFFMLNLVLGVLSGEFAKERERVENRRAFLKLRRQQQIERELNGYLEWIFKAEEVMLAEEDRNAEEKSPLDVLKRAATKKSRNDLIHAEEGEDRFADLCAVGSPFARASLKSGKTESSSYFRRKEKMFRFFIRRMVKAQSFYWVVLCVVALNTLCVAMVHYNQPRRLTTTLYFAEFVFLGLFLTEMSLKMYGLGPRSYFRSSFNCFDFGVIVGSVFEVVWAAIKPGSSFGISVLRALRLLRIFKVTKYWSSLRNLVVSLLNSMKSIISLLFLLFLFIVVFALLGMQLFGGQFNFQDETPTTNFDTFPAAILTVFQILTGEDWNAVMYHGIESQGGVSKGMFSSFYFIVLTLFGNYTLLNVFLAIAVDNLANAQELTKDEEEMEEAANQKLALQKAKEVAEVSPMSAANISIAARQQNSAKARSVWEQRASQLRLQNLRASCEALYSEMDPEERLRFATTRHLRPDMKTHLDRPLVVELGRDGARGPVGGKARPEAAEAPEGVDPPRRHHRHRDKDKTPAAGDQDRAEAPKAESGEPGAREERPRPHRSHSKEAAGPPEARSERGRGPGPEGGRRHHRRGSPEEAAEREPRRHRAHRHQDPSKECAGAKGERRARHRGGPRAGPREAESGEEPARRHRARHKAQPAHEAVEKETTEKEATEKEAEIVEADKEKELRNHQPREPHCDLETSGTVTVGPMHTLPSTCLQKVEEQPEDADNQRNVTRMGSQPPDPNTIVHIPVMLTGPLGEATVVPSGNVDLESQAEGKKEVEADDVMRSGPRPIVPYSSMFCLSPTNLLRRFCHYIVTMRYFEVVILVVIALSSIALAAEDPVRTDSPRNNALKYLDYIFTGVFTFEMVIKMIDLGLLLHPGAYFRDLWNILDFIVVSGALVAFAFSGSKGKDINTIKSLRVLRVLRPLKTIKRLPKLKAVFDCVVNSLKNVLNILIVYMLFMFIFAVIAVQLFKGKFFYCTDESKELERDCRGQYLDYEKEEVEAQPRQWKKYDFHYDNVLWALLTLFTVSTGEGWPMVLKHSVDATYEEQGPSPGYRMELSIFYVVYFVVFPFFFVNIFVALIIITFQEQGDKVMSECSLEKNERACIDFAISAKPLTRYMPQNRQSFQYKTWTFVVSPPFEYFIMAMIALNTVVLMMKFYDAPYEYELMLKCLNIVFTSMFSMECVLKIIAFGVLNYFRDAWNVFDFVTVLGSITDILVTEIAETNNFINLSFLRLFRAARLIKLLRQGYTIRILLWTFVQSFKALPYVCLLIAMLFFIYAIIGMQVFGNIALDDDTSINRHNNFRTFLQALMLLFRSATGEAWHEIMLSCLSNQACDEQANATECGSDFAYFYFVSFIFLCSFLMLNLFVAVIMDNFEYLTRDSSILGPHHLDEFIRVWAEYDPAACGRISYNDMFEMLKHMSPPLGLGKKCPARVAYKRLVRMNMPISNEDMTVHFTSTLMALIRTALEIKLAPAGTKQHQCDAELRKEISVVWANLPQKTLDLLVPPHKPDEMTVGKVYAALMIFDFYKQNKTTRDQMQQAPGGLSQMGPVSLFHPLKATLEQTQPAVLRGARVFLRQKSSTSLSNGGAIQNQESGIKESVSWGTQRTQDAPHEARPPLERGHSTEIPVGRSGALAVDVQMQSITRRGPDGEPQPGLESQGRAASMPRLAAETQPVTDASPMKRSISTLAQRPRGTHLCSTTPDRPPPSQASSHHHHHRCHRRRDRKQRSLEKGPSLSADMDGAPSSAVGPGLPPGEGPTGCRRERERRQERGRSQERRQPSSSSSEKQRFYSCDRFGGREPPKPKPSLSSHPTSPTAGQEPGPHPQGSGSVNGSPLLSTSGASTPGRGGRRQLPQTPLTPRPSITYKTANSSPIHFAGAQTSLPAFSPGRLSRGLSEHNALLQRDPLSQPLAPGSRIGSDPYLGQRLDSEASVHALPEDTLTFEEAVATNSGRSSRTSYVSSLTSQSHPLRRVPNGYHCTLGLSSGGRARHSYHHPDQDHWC
T3 sequence (Q02410 whole entry): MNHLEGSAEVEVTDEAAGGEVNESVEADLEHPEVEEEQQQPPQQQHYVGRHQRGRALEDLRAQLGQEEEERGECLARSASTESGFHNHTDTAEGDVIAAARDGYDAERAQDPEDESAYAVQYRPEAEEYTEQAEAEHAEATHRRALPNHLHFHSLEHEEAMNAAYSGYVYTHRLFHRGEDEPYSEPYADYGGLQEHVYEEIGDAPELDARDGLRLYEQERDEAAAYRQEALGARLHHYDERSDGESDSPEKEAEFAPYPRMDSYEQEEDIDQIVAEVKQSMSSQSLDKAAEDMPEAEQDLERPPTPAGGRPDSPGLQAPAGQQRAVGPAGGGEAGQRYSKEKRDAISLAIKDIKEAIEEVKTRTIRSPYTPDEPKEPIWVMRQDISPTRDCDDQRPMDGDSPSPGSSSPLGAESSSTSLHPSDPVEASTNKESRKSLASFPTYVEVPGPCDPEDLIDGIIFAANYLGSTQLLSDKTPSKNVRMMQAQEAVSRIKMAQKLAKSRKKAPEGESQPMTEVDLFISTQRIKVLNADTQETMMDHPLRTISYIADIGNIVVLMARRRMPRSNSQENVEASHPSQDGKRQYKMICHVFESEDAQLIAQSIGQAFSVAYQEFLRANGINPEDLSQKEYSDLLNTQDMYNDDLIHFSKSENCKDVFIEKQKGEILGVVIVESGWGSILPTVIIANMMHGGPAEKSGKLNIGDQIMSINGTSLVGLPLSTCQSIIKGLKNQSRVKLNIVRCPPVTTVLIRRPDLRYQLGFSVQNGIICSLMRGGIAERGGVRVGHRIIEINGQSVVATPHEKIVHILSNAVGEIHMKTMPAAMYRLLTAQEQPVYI

[5] = molecular target: Epstein-Barr nuclear antigen 1 (Epstein-Barr virus (strain B95-8) (HHV-4) (Human herpesvirus 4), UniProt P03211); assay: EBNA-1 inhibitors, dose response, biochemical, fluorescence polarization, 1536-well (AID 2381); design: species or system human gammaherpesvirus 4;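 note: fluorescence polarization of a Cy5 DNA probe bound by EBNA-1 protein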
Chain of Epstein-Barr nuclear antigen 1 (P03211 whole entry): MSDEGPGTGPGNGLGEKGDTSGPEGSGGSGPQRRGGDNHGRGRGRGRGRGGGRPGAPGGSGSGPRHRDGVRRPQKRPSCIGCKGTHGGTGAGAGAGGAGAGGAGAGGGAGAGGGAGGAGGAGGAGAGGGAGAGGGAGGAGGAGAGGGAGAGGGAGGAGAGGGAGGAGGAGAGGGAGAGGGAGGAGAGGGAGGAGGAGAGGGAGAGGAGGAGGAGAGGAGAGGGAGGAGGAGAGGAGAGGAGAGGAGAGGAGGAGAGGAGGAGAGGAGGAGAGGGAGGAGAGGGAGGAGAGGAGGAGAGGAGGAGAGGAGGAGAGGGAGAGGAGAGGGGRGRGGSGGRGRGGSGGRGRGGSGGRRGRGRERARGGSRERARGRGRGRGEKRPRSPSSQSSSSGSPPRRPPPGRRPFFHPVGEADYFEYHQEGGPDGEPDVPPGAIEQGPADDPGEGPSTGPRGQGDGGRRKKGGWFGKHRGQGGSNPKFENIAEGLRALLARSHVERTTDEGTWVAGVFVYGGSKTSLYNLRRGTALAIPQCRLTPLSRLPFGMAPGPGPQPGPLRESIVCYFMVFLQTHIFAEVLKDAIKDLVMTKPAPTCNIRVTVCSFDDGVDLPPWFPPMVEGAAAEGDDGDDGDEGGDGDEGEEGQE

[6] = molecular target: Lytic switch protein BZLF1 (Epstein-Barr virus (strain B95-8) (HHV-4) (Human herpesvirus 4), UniProt P03206); assay: EBV ZTA inhibitors, dose response, counter-screen for EBNA-1 inhibitor project, biochemical, fluorescence polarization, Epstein-Barr virus, 1536-well (AID 2377); design: species or system human gammaherpesvirus 4;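 note: fluorescence polarization of Cy5-labelled ZRE DNA probe bound by purified Zta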
[7] = molecular target: T3, Voltage-gated N-type calcium channel alpha-1B subunit/Amyloid beta A4 precursor protein-binding family A member 1; format: protein assay; remark: listed apart in the source
[8] = cytotoxicity toward NIH3T3 fibroblasts, dose response, counter-screen, cell-based, ATP luminescence, mouse fibroblasts (AID 2010); format: functional;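 note: cells exposed to compound for about 90 hours before reading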
[9] = Shn3 3'UTR reporter inhibitors, dose response, cell-based, Clone20 osteoblasts, firefly luciferase, cherry-picked (AID 624132); format: functional;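 note: firefly luciferase luminescence from reporter carrying the Shn3 3'UTR in osteoblasts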
[10] = C. albicans growth with fluconazole, confirmation, fluorescence, retest (AID 2467); format: functional, cell-based
[11] = inhibitors of intracellular T. cruzi replication, confirmation, NIH3T3 host cells, beta-gal luminescence (AID 2044); format: functional, cell-based;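 note: intracellular parasites grown in NIH/3T3 mouse fibroblasts as host cells; luminescent beta-galactosidase reporter signal from transgenic T. cruzi replicating inside host cells; inhibitors lower the luminescence signal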
cells [12] = format: functional, cell-based
cells [13] = format: functional, cell-based; remark: listed apart in the source
[14] = Luminescence-based dose response cell-based high throughput screening assay for cytotoxic compounds using the IEC-6 intestinal epithelial cell line. [Related pubchem assays: 1858 (Summary AID.), 1825 (Counterscreen.), 1907 (Confirmation screen.)]; format: functional
[15] = HepG2 cell cytotoxicity, dose response, cytotoxicity control for Shn3 inhibitor project, CellTiter-Glo, cherry-picked (AID 624134); format: functional, cell-based
Nonstructural protein 1 = Nonstructural protein 1 (Influenza A virus, UniProt Q194T2); format: functional, Influenza A virus (A/California/07/2009(H1N1))
[16] = NIH-3T3 fibroblast cytotoxicity, dose response, cytotoxicity control, cell-based, fluorescence, Alamar Blue, secondary assay (AID 2327); format: functional;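 note: NIH-3T3 mouse fibroblasts cultured with fluconazole at 8 µg/mL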
INS1 = assay: beta cell apoptosis inhibitors, cytokine rescue, dose response, luminescence, retest (AID 449756); format: functional, cell-based; conditions: Rattus norvegicus;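 note: cell death triggered by IL-1 beta plus TNF-alpha plus IFN-gamma mixture; protective hits raise ATP signal compared with cytokine alone wells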
[17] = control 3'UTR Renilla luciferase suppression, dose response, counter-screen for Shn3 inhibitor project, cell-based, Clone20-Shn3RL, cherry-picked (AID 624133); format: functional
Estrogen receptor beta = Estrogen receptor beta (Homo sapiens, UniProt Q92731);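 note: recombinant ER-beta bound to coactivator SRC1 peptide in presence of estradiol agonist; inhibitors block coactivator peptide binding and lower the FRET signal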
H4 = assay: Luminescence Cell-Based Dose Response HTS to Identify Activators of 5'UTR Stem-Loop Driven Prion Protein mRNA Translation in H4 Neuroglioblastoma Cells. [Related pubchem assays: 1829 (Project Summary), 1814 (Primary HTS)]; format: functional; conditions: Homo sapiens
[18] = molecular target: T1, Neuropeptide Y receptor type 2; assay: NPY-Y2 antagonist potency, selectivity check, dose response, counter-screen for NPY-Y1 antagonist project, cell-based (AID 1278); format: functional
[19] = tested on: Streptococcus sp. 'group A'; assay: growth inhibition of control SK(-) GAS strain, dose response, counter-screen for streptokinase expression inhibitor project, luminescence, kanamycin, BacTiterGlo, confirmation (AID 1900); format: functional, organism-based
[20] = Luminescence Cell-Based Dose Response HTS to Identify Activators of Luciferase Translation or Activity in H4 […] Cells. [Related pubchem assays: 1829 (Project Summary), 1814 (Primary HTS)]; format: functional
Streptococcus = assay: Group A Streptococcus viability loss, dose response, counter-screen for streptokinase expression inhibitor project, luminescence, BacTiterGlo (AID 1915); format: functional, organism-based;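 note: potency for reduction of bacterial viability or growth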
Streptokinase A = molecular target: T4, Streptokinase A (Streptococcus pyogenes serotype M1, UniProt P10520); assay: S. pyogenes streptokinase expression inhibitors, potency, dose response, plasminogen activation absorbance, OD405 (AID 1914); format: functional, Streptococcus pyogenes M1 GAS;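 note: secreted streptokinase activity via plasminogen activation per viability signal from cell pellet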
T4 sequence (P10520 whole entry): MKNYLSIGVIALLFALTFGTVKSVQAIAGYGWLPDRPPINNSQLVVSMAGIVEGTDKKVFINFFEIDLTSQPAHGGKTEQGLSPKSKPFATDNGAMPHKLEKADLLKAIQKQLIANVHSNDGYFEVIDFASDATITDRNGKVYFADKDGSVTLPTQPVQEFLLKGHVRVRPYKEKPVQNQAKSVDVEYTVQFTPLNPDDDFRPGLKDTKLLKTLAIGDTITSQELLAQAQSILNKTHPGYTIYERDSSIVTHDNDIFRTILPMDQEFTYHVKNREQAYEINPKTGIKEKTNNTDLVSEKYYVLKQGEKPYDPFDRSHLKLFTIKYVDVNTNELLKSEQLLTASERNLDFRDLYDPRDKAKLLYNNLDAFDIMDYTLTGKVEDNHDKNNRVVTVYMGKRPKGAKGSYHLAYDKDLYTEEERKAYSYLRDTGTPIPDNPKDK

[21] = molecular target: T2, Neuropeptide Y receptor type 1; assay: NPY-Y1 receptor antagonist potency, dose response, cell-based (AID 1277); format: functional
[22] = cytotoxicity in HEK-293T cells, dose response, cytotoxicity control for TCR NF-kB inhibitor project, luminescence, T-cell screen hits (AID 489026); format: functional, cell-based;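 note: cells exposed to compound about 14 hours before the viability readout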
Ephrin type-A receptor 4 = Ephrin type-A receptor 4 (Mus musculus, UniProt Q03137); assay: inhibitors of EphA4 binding to KYL peptide, primary screen, biochemical, colorimetric, mouse EphA4 (AID 689); format: functional
[23] = Artemis endonuclease inhibitor potency, dose response, biochemical, fluorescence intensity (AID 720701); format: functional;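 note: Artemis endonuclease enzyme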
[24] = Luminescence Cell-Based Dose Response to Identify Activators of Luciferase Translation or Activity in H4-C Neuroglioblastoma Cells. [Related pubchem assays: 1829 (Project Summary), 1814 (Primary HTS)]; format: functional
[25] = Luminescence Cell-Based Dose Confirmation to Identify Activators of 5'UTR Stem-Loop Driven Alpha-Synuclein mRNA Translation in H4 Neuroglioblastoma Cells. [Related pubchem assays: 1829 (Project Summary), 1814 (Primary HTS)]; format: functional
[26] = Luminescence Cell-Based Dose Response to Identify Activators of 5'UTR Stem-Loop Driven Prion Protein mRNA Translation in H4-C Neuroglioblastoma Cells. [Related pubchem assays: 1829 (Project Summary), 1814 (Primary HTS)]; format: functional
[27] = molecular target: Voltage-gated inwardly rectifying potassium channel KCNH2 (Homo sapiens, UniProt Q12809); assay: hERG protection from proarrhythmic block, potency, dose response, cell-based, thallium flux (AID 2121); format: ADME
Chain of Voltage-gated inwardly rectifying potassium channel KCNH2 (Q12809 whole entry): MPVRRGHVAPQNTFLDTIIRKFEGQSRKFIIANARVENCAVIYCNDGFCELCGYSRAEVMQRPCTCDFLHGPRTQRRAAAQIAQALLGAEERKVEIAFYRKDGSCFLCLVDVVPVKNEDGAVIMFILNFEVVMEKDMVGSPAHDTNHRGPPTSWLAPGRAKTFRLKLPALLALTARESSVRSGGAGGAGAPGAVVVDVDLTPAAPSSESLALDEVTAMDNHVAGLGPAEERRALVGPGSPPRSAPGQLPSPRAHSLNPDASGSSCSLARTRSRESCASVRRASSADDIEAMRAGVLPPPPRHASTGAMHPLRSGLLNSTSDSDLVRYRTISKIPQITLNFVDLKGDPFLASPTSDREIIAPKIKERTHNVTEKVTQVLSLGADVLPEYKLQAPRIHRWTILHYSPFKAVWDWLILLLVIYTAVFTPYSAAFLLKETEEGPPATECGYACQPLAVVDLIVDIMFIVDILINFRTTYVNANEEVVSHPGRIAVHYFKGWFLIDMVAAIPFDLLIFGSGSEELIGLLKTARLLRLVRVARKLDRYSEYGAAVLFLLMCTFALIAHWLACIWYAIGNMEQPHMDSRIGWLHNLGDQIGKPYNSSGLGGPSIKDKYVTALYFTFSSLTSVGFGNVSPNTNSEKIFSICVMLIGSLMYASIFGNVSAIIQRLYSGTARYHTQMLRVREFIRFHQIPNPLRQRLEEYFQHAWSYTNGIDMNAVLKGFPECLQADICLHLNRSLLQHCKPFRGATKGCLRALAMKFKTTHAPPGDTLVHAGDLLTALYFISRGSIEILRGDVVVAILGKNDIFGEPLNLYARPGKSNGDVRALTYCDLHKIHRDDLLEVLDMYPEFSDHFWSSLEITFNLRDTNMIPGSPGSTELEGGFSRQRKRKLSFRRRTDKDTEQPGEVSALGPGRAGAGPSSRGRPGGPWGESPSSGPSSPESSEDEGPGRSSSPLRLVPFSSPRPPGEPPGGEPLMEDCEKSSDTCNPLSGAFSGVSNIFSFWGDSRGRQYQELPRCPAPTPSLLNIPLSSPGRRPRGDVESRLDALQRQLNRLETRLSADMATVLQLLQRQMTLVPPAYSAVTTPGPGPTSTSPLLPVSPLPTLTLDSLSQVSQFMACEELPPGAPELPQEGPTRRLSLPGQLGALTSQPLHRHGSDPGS

Cytochrome P450 2C9 = Cytochrome P450 2C9 (Homo sapiens, UniProt P11712)

SMILES: Cc1cc(C(=O)CN2C(=O)C(=O)N(Cc3ccco3)C2=O)c(C)n1Cc1ccccc1
- EC50 [1]: > 30 µM (not active)

SMILES: CSc1nc(-c2ccco2)nn1C(=O)c1ccco1
- IC50 (Prothrombin): 0.22 µM (active)

SMILES: OC1(c2ccccc2)CCN(Cc2ccccc2)C2CCCCC21 (configuration not stated)
- IC50 [2]: 4.38 µM (active)
- IC50 [3]: 10.2 µM (not active)

SMILES: O=C(Nc1nc2cc3c(cc2s1)OCCO3)c1ccc(N2C(=O)CCC2=O)cc1
- IC50 [4]: 23 µM (active)
- IC50 [5]: 15.6 µM (not active)
- IC50 [6]: 15.1 µM (not active)
- IC50 [7]: > 50 µM (inactive)

SMILES: Cc1ccccc1/C=C/c1nc2ccccc2c(=O)n1CCc1ccccc1
- IC50 [2]: 5.52 µM (active)
- IC50 [3]: 4.26 µM (active)

SMILES: COc1cccc(C(NC(C)=O)c2ccc3cccnc3c2O)c1 (configuration not stated)
- EC50 [8]: 1.07 µM (active)
- AC50 [9]: 1.39 µM (active)
- EC50 [10]: 1.38 µM (active)
- EC50 [11]: 1.07 µM (active)
- EC50 (cells [12]): 7.47 µM (active)
- EC50 (cells [13]): > 350 µM (not active)
- IC50 [14]: 1.48 µM (active)
- AC50 [15]: 2.61 µM (active)
- IC50 (Nonstructural protein 1): 14.3 µM (active)
- EC50 [16]: 3.88 µM (inconclusive)
- AC50 (INS1): 0.886 µM (active)
- AC50 [17]: 1.04 µM (active)

SMILES: CC(C)CN(CCC(=O)O)CC(C)C
- IC50 (Estrogen receptor beta): > 50 µM (not active)

SMILES: O=S(=O)(c1cccc(-c2nc3ccccc3s2)c1)N1CCOCC1
- IC50 (Estrogen receptor beta): > 50 µM (not active)

SMILES: Cc1cc(C(=O)CN2C(=O)C(=O)N(Cc3ccccc3)C2=O)c(C)n1Cc1ccco1
- EC50 [1]: > 30 µM (not active)

SMILES: Cc1c(Cl)cccc1NC(=O)Cc1ccc([N+](=O)[O-])cc1
- IC50 (Prothrombin): > 50 µM (not active)

SMILES: Clc1ccc(-c2csc(Nc3ccccc3)[n+]2Cc2ccco2)c(Cl)c1
- EC50 (H4): 51.2 µM (active)
- IC50 [18]: > 35 µM (not active)
- EC50 [19]: 12.3 µM (active)
- EC50 [20]: > 120 µM (not active)
- EC50 (Streptococcus): > 150 µM (not active)
- EC50 (Streptokinase A): 2.27 µM (active)
- IC50 [21]: > 35 µM (not active)

SMILES: CC(=O)O[C@H]1C(=O)[C@@]2(C)C([C@H](OC(=O)c3ccccc3)[C@]3(O)C[C@H](OC(=O)[C@H](O)[C@@H](NC(=O)Cc4ccccc4)c4ccccc4)C(C)=C1C3(C)C)[C@]1(OC(C)=O)CO[C@@H]1C[C@@H]2O (some centres not stated)
- IC50 [22]: > 80 µM (inactive)
- IC50 [14]: 0.396 µM (active)

SMILES: Cc1ccc2cc(C=C(C#N)C#N)c(N3CCCCC3)nc2c1
- EC50 [10]: > 38 µM (not active)
- IC50 (Ephrin type-A receptor 4): 24.4 µM (active)
- EC50 [16]: 46.4 µM (active)

SMILES: COc1cc2c(C#N)c(N3CCN(c4ccccc4OC)CC3)nc(N)c2c(N)n1
- IC50 [23]: > 20 µM (inactive)
- EC50 [19]: 4.63 µM (active)
- EC50 (Streptococcus): > 150 µM (not active)
- EC50 (Streptokinase A): 22.6 µM (active)

SMILES: COCc1nc2oc3ccc(C)cc3c(=O)c2cc1C(=O)OC
- EC50 [24]: 0.402 µM (active)
- EC50 [25]: 0.282 µM (active)
- EC50 (H4): > 120 µM (not active)
- EC50 [26]: 0.433 µM (active)
- EC50 [20]: < 0.1 µM (inconclusive)

SMILES: CNS(=O)(=O)c1cccc(C(=O)OCC(=O)Nc2ccc(-c3nc4ccc(C)cc4s3)cc2)c1
- IC50 [5]: 5.63 µM (active)
- IC50 [6]: > 111 µM (not active)

SMILES: C=CCn1c(=S)[nH]c2cc(-c3ccccc3)sc2c1=O
- EC50 [27]: 1.11 µM (active)

SMILES: COc1ccccc1NC(=S)NC(=O)c1ccc(-c2ccc(Cl)cc2)o1
- AC50 (Cytochrome P450 2C9): inconclusive
- EC50 [27]: 0.1 µM (active)
